Test results as given in the supplement of paper PMC10307832.

What was measured:
Test in all cases: relative viability (nuclei count vs DMSO), 5 days (fraction); higher = more cells survive
Linsitinib + Lapatinib = compound: C[C@]1(O)C[C@@H](c2nc(-c3ccc4ccc(-c5ccccc5)nc4c3)c3c(N)nccn32)C1 [Linsitinib] + CS(=O)(=O)CCNCc1ccc(-c2ccc3ncnc(Nc4ccc(OCc5cccc(F)c5)c(Cl)c4)c3c2)o1 [Lapatinib] (partner 2 µM)
Procedure, shortened: (§1)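 Lung cancer cell lines in 1536-well plates were dosed by pin tool the day after seeding, either with one drug alone or with a fixed anchor-drug dose plus five library-drug doses (not always all listed) in √10 steps. After 5 days, cells were fixed and their nuclei stained in one step (final 0.05% Triton X-100, 1% formaldehyde, 1 ug/ml Hoechst), then counted on 4× images. Relative viability is the nuclei count in treated wells divided by that in vehicle wells. Values are medians of duplicate plates.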

Linsitinib + Pemetrexed = compound: C[C@]1(O)C[C@@H](c2nc(-c3ccc4ccc(-c5ccccc5)nc4c3)c3c(N)nccn32)C1 [Linsitinib] + Nc1nc2[nH]cc(CCc3ccc(C(=O)N[C@@H](CCC(=O)O)C(=O)O)cc3)c2c(=O)[nH]1 [Pemetrexed] (partner 0.2 µM)
Procedure, shortened: as §1

Linsitinib + Vorinostat = compound: C[C@]1(O)C[C@@H](c2nc(-c3ccc4ccc(-c5ccccc5)nc4c3)c3c(N)nccn32)C1 [Linsitinib] + O=C(CCCCCCC(=O)Nc1ccccc1)NO [Vorinostat] (partner 1 µM)
Procedure, shortened: as §1

Ispinesib + Luminespib = compound: Cc1ccc(C(=O)N(CCCN)[C@@H](c2nc3cc(Cl)ccc3c(=O)n2Cc2ccccc2)C(C)C)cc1 [Ispinesib] + CCNC(=O)c1noc(-c2cc(C(C)C)c(O)cc2O)c1-c1ccc(CN2CCOCC2)cc1 [Luminespib] (partner 0.01 µM)
Procedure, shortened: as §1

COR-L 105 showed a relative viability (Linsitinib + Lapatinib; first compound 0.01 µM) of 0.452, a relative viability (Linsitinib + Lapatinib; first compound 0.03162 µM) of 0.35 and a relative viability (Linsitinib + Lapatinib; first compound 0.1 µM) of 0.357. For the same cell line, the relative viability (Linsitinib + Lapatinib; first compound 0.3162 µM) was 0.325, the relative viability (Linsitinib + Lapatinib; first compound 1 µM) was 0.296 and the relative viability (Linsitinib + Pemetrexed; first compound 0.01 µM) was 0.963. The relative viability (Linsitinib + Pemetrexed; first compound 0.03162 µM) was 1.1, the relative viability (Linsitinib + Pemetrexed; first compound 0.1 µM) was 1.23 and the relative viability (Linsitinib + Pemetrexed; first compound 0.3162 µM) was 0.771. The relative viability (Linsitinib + Pemetrexed; first compound 1 µM) was 0.984, the relative viability (Linsitinib + Vorinostat; first compound 0.01 µM) was 0.749 and the relative viability (Linsitinib + Vorinostat; first compound 0.03162 µM) was 0.872. For the same cell line, the relative viability (Linsitinib + Vorinostat; first compound 0.1 µM) was 0.712, the relative viability (Linsitinib + Vorinostat; first compound 0.3162 µM) was 0.389 and the relative viability (Linsitinib + Vorinostat; first compound 1 µM) was 0.609. It also gave a relative viability (Ispinesib + Luminespib; first compound 0.001 µM) of 0.737, a relative viability (Ispinesib + Luminespib; first compound 0.003162 µM) of 0.666 and a relative viability (Ispinesib + Luminespib; first compound 0.01 µM) of 0.808. It also gave a relative viability (Ispinesib + Luminespib; first compound 0.03162 µM) of 0.349 and a relative viability (Ispinesib + Luminespib; first compound 0.1 µM) of 0.439.

With NCI-H838 the relative viability (Linsitinib + Lapatinib; first compound 0.01 µM) was 0.963, the relative viability (Linsitinib + Lapatinib; first compound 0.03162 µM) was 0.929 and the relative viability (Linsitinib + Lapatinib; first compound 0.1 µM) was 0.883. The relative viability (Linsitinib + Lapatinib; first compound 0.3162 µM) was 0.286, the relative viability (Linsitinib + Lapatinib; first compound 1 µM) was 0.591 and the relative viability (Linsitinib + Pemetrexed; first compound 0.01 µM) was 0.252. The relative viability (Linsitinib + Pemetrexed; first compound 0.03162 µM) was 0.209, the relative viability (Linsitinib + Pemetrexed; first compound 0.1 µM) was 0.256 and the relative viability (Linsitinib + Pemetrexed; first compound 0.3162 µM) was 0.214. It also gave a relative viability (Linsitinib + Pemetrexed; first compound 1 µM) of 0.212, a relative viability (Linsitinib + Vorinostat; first compound 0.01 µM) of 0.704 and a relative viability (Linsitinib + Vorinostat; first compound 0.03162 µM) of 0.645. It also gave a relative viability (Linsitinib + Vorinostat; first compound 0.1 µM) of 0.652, a relative viability (Linsitinib + Vorinostat; first compound 0.3162 µM) of 0.517 and a relative viability (Linsitinib + Vorinostat; first compound 1 µM) of 0.545. The relative viability (Ispinesib + Luminespib; first compound 0.001 µM) was 0.302, the relative viability (Ispinesib + Luminespib; first compound 0.003162 µM) was 0.325 and the relative viability (Ispinesib + Luminespib; first compound 0.01 µM) was 0.278. The relative viability (Ispinesib + Luminespib; first compound 0.03162 µM) was 0.322 and the relative viability (Ispinesib + Luminespib; first compound 0.1 µM) was 0.268.

SW 1573 gave a relative viability (Linsitinib + Lapatinib; first compound 0.01 µM) of 1.18, a relative viability (Linsitinib + Lapatinib; first compound 0.03162 µM) of 1.3 and a relative viability (Linsitinib + Lapatinib; first compound 0.1 µM) of 1.05. The relative viability (Linsitinib + Lapatinib; first compound 0.3162 µM) was 0.939, the relative viability (Linsitinib + Lapatinib; first compound 1 µM) was 0.933 and the relative viability (Linsitinib + Pemetrexed; first compound 0.01 µM) was 0.912. It also gave a relative viability (Linsitinib + Pemetrexed; first compound 0.03162 µM) of 0.676, a relative viability (Linsitinib + Pemetrexed; first compound 0.1 µM) of 0.921 and a relative viability (Linsitinib + Pemetrexed; first compound 0.3162 µM) of 0.828. It also gave a relative viability (Linsitinib + Pemetrexed; first compound 1 µM) of 0.732, a relative viability (Linsitinib + Vorinostat; first compound 0.01 µM) of 0.934 and a relative viability (Linsitinib + Vorinostat; first compound 0.03162 µM) of 0.575. It also gave a relative viability (Linsitinib + Vorinostat; first compound 0.1 µM) of 0.786, a relative viability (Linsitinib + Vorinostat; first compound 0.3162 µM) of 0.26 and a relative viability (Linsitinib + Vorinostat; first compound 1 µM) of 0.518. It also gave a relative viability (Ispinesib + Luminespib; first compound 0.001 µM) of 0.234, a relative viability (Ispinesib + Luminespib; first compound 0.003162 µM) of 0.198 and a relative viability (Ispinesib + Luminespib; first compound 0.01 µM) of 0.13. For the same cell line, the relative viability (Ispinesib + Luminespib; first compound 0.03162 µM) was 0.151 and the relative viability (Ispinesib + Luminespib; first compound 0.1 µM) was 0.148.
